Earlier results on one molecule are cited in US11878005B2, “Formulations of deferasirox and methods of making the same” (AustinPx, LLC, priority 2015, dated 2024).

Structures are written as SMILES.

Assay in series [1]: not given
This is another data set of the same source.

`O=C(O)c1ccc(-n2nc(-c3ccccc3O)nc2-c2ccccc2O)cc1` [DFX, Deferasirox]: under “25° C.”, the reported water solubility is 0.4 mg/mL. Further, the pH dependent solubility result (acidic media) is recorded as “insoluble in acidic media”. Further, the “food effect on exposure” value in series [1] (iron overload patients, administered with a high fat meal) is “two-fold higher exposure”. The “total DFX dose recovered in the feces as unchanged drug” value in series [1] (steady state (7-day dosing)) was 84%.
